Assay results published in patent publication US9546201B2, “MUC-1 cytoplasmic domain peptides as inhibitors of cancer” (DANA-FARBER CANCER INSTITUTE, INC., priority 2008, dated 2017).
Where a SMILES comes first, the peptide text is derived from it. [ ]: non-standard residue; d: D form.

Key:
[1] = target: T1, MUC1-C in MCF-7 cells (Homo sapiens, UniProt P15941); assay: Immunoblot of nuclear lysates, MCF-7; type: cell-based; details: MCF-7 nuclear lysates, 5 μM peptide for 3 d
T1 construct: translated as a single polypeptide and cleaved into N- and C-terminal subunits in the endoplasmic reticulum; endogenous in cells; host or cells: ZR-75-1 and MCF-7 human breast cancer cells
T1 sequence (P15941 1098-1255 limits assumed): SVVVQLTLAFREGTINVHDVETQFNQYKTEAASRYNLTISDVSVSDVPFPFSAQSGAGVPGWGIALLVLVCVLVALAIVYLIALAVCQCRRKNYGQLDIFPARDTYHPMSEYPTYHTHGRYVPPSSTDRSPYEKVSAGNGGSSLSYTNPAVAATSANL
Experimental: FIGS. 2A-C. MUC1/CQC peptide blocks nuclear localization of MUC1-C. (FIG. 2A) ZR-75-1 cells were incubated with 5 μM FITC-labeled MUC1/CQC peptide for the indicated times and then analyzed by flow cytometry. The mean fluorescence index (MFI) is included in each of the panels. (FIGS. 2B-C) ZR-75-1 (FIG. 2B) and MCF-7 (FIG. 2C) cells were incubated in the presence of 5 μM MUC1/CQC or MUC1/AQA peptide for 3 d. Whole cell lysates (WCL) (left panels) and nuclear lysates (right panels) were immunoblotted with the indicated antibodies.
Whole cell and nuclear lysates were prepared as described (Leng et al., 2007). Soluble proteins were subjected to immunoprecipitation with anti-Flag (Sigma, St. Louis, Mo.). Immunoprecitates and soluble proteins were analyzed by immunoblotting with anti-His (Cell Signaling Technology, Danvers, Mass.), anti-GFP (Millipore, Danvers, Mass.), anti-Flag, anti-MUC1-C (Abl; NeoMarkers, Fremont, Calif.), anti-lamin B (EMD, La Jolla, Calif.) or anti-β-actin (Sigma). Reactivity was detected with horseradish peroxidase-conjugated second antibodies and chemiluminescence.
Human ZR-75-1 and MCF-7 breast cancer cells overexpress endogenous MUC1, and thus represent potential models for evaluating effects of the MUC1/CQC peptide (Ramasamy et al., 2007). To assess uptake, the ZR-75-1 cells were incubated with 5 μM FITC-MUC1/CQC peptide (FIG. 2A). […]

[2] = test system: ZR-75-1/vector cells; assay: Viable cell number by trypan blue exclusion, ZR-75-1/vector; type: cell-based, human; details: 5 μM
Experimental: FIGS. 4A-E. Selectivity of MUC1/CQC for MUC1 expressing breast cancer cells. (FIG. 4A) ZR-75-1 cells were stably infected with an empty lentivirus (vector) or one expressing a MUC1 siRNA. Lysates for the infected cells were immunoblotted with the indicated antibodies. (FIG. 4B) ZR-75-1/vector cells were left untreated (diamonds), and ZR-75-1/vector (squares) and ZR-75-1/MUC1siRNA (triangles) cells were treated with 5 μM MUC1/CQC peptide for the indicated times. Viable cell number was determined by trypan blue exclusion. (FIG. 4C) 293 cells were left untreated (diamonds), and treated with 5 μM MUC1/CQC (squares) or MUC1/AQA (triangles) for the indicated times. Viable cell number was determined by trypan blue exclusion. (FIG. 4D) MCF-10A cells were left untreated (left panel), and treated with 5 μM MUC1/CQC (middle panel) or MUC1/AQA (right panel). At 3 d, cells were analyzed for cell cycle distribution. […] Viable cell number was determined by trypan blue exclusion.
Human breast cancer ZR-75-1, ZR-75-1/vector, ZR-75-1/MUC1siRNA (Ren et al., 2004) cell lines were grown in RPMI1640 medium supplemented with 10% heat-inactivated fetal bovine serum (HI-FBS), 100 U/ml penicillin, and 100 μg/ml streptomycin (Invitrogen) in a humidified incubator at 37° C. and 5% CO2. […] Viability was determined by trypan blue exclusion. […]

## CC[C@H](C)[C@H](NC(=O)[C@H](CC(=O)O)NC(=O)[C@H](CC(C)C)NC(=O)[C@H](CCC(N)=O)NC(=O)CNC(=O)[C@H](Cc1ccc(O)cc1)NC(=O)[C@H](CC(N)=O)NC(=O)[C@H](CCCCN)NC(=O)[C@H](CCCNC(=N)N)NC(=O)[C@H](CCCNC(=N)N)NC(=O)[C@H](CS)NC(=O)[C@H](CCC(N)=O)NC(=O)[C@H](CS)NC(=O)[C@@H](CCCNC(=N)N)NC(=O)[C@@H](CCCNC(=N)N)NC(=O)[C@@H](CCCNC(=N)N)NC(=O)[C@@H](CCCNC(=N)N)NC(=O)[C@@H](CCCNC(=N)N)NC(=O)[C@@H](CCCNC(=N)N)NC(=O)[C@@H](CCCNC(=N)N)NC(=O)[C@@H](CCCNC(=N)N)NC(=O)[C@H](N)CCCNC(=N)N)C(=O)N[C@@H](Cc1ccccc1)C(=O)N1CCC[C@H]1C(=O)O [MUC1/CQC] (H-[dR][dR][dR][dR][dR][dR][dR][dR][dR]CQCRRKNYGQLDIFP-OH; N-terminus and C-terminus assumed)
[1]
  nuclear MUC1-C levels: down-regulation of nuclear MUC1-C levels
[2]
  effect on growth (viable cell number): growth arrest and death
